Assay results: ChEMBL document CHEMBL3603790, “2- and 3-Fluoro-3-deazaneplanocins, 2-fluoro-3-deazaaristeromycins, and 3-methyl-3-deazaneplanocin: Synthesis and antiviral properties” (Bioorg Med Chem, 2015)
The source made the active and inactive calls. The calls are words filed in the database; no cut-off is given here.

What was measured:
[1] = tested on: Respiratory syncytial virus; experiment: Antiviral activity against Respiratory syncytial virus infected in human HeLa cells after 3 days by neutral red dye-based plaque reduction assay; format: functional, organism-based
[2] = Cytotoxicity against HFF; format: cell-based; conditions: human, HFF cells
[3] = tested on: Human alphaherpesvirus 1; experiment: Antiviral activity against Human herpesvirus 1 infected in HEL cells after 3 days by neutral red dye-based plaque reduction assay; format: functional, organism-based
[4] = Selectivity index, ratio of CC50 for HFF to IC50 for HCMV; format: functional
[5] = tested on: Hepatitis B virus; experiment: Antiviral activity against HBV infected in human HepG22.2.15 cells after 3 days by neutral red dye-based plaque reduction assay; format: functional, organism-based; conditions: HepG2 2.2.15, 72 h
[6] = tested on: Yellow fever virus; experiment: Antiviral activity against Yellow fever virus infected in African green monkey Vero cells after 3 days by neutral red dye-based plaque reduction assay; format: functional, organism-based; conditions: 72 h
[7] = tested on: LLC-MK2; experiment: Cytotoxicity against monkey LLC-MK2 cells; format: cell-based, Macaca mulatta; conditions: rhesus monkey
[8] = tested on: Venezuelan equine encephalitis virus; experiment: Antiviral activity against Venezuelan equine encephalitis virus infected in African green monkey Vero cells after 3 days by neutral red dye-based plaque reduction assay; format: functional, organism-based
[9] = Cytotoxicity against human […] cells; format: cell-based
[10] = Selectivity index, ratio of CC50 for African green monkey CV1 cells to IC50 for Measles virus; format: functional, CV-1
[11] = tested on: Hepatitis C virus; experiment: Antiviral activity against Hepatitis C virus infected in human Ava5 cells after 3 days by neutral red dye-based plaque reduction assay; format: functional, organism-based; conditions: Hepacivirus hominis
[12] = tested on: Human betaherpesvirus 5; experiment: Antiviral activity against HCMV infected in HFF after 3 days by neutral red dye-based plaque reduction assay; format: functional, organism-based; conditions: Human betaherpesvirus 5, 72 h
[13] = tested on: Measles morbillivirus; experiment: Antiviral activity against Measles virus infected in African green monkey CV1 cells after 3 days by neutral red dye-based plaque reduction assay; format: functional, organism-based; conditions: CV-1, 72 h
[14] = Cytotoxicity against African green monkey Vero 76 cells; format: cell-based; conditions: chlorocebus sabaeus, vero 76
[15] = tested on: Vaccinia virus; experiment: Antiviral activity against Vaccinia virus infected in HEL cells after 3 days by neutral red dye-based plaque reduction assay; format: functional, organism-based; conditions: Orthopoxvirus vaccinia
[16] = tested on: HEL; experiment: Cytotoxicity against HEL cells; format: cell-based; conditions: human
[17] = tested on: Respiratory syncytial virus; experiment: Antiviral activity against Respiratory syncytial virus infected in monkey MA104 cells after 3 days by neutral red dye-based plaque reduction assay; format: functional, organism-based
[18] = Cytotoxicity against human Ava5 cells; format: cell-based
[19] = tested on: HeLa; experiment: Cytotoxicity against human HeLa cells; format: cell-based
[20] = tested on: Enterovirus C; experiment: Antiviral activity against Poliovirus infected in monkey LLC-MK2 cells after 3 days by neutral red dye-based plaque reduction assay; format: functional, organism-based
[21] = tested on: Rift Valley fever virus; experiment: Antiviral activity against Rift Valley fever virus infected in African green monkey Vero 76 cells after 3 days by neutral red dye-based plaque reduction assay; format: functional, organism-based
[22] = tested on: Dengue virus; experiment: Antiviral activity against Dengue virus infected in African green monkey Vero cells after 3 days by neutral red dye-based plaque reduction assay; format: functional, organism-based
[23] = Cytotoxicity against African green monkey Vero E6 cells; format: cell-based; conditions: chlorocebus sabaeus
[24] = Inhibition of rabbit erythrocytic AdoHcy hydrolase using AdoHcy as substrate assessed as formation of L-homocysteine preincubated for 5 mins followed by substrate addition measured after 1 hr by thiol quantitation reagent-based assay; parameters: species or system Oryctolagus cuniculus
[25] = Cytotoxicity against African green monkey CV1 cells; format: cell-based, CV-1; conditions: chlorocebus aethiops
[26] = Cytotoxicity against monkey MA104 cells; format: cell-based, Macaca mulatta; conditions: rhesus monkey
[27] = tested on: West Nile virus; experiment: Antiviral activity against WNV infected in African green monkey Vero 76 cells after 3 days by neutral red dye-based plaque reduction assay; format: functional, organism-based
[28] = Selectivity index, ratio of CC50 for human HepG2(2.2.1) cells to IC50 for HBV; format: functional
[29] = tested on: Human alphaherpesvirus 2; experiment: Antiviral activity against Human herpesvirus 2 infected in HEL cells after 3 days by neutral red dye-based plaque reduction assay; format: functional, organism-based
[30] = tested on: SARS-CoV; experiment: Antiviral activity against SARS coronavirus infected in African green monkey Vero E6 cells after 3 days by neutral red dye-based plaque reduction assay; format: functional, organism-based; conditions: Severe acute respiratory syndrome-related coronavirus
[31] = Cytotoxicity against African green monkey Vero cells; format: cell-based; conditions: chlorocebus sabaeus, Vero cells
[32] = tested on: MDCK; experiment: Cytotoxicity against MDCK cells; format: cell-based, Canis lupus familiaris; conditions: dog, mdck
[33] = tested on: Influenza A virus; experiment: Antiviral activity against Influenza A virus H1N1 infected in MDCK cells after 3 days by neutral red dye-based plaque reduction assay; format: functional, organism-based
[34] = Selectivity index, ratio of CC50 for African green monkey Vero cells to IC50 for Yellow fever virus; format: functional

| Compound | Activity [1] | CC50 [2] | Activity [3] | Ratio CC50/IC50 [4] | IC50 [5] | IC50 [6] | Activity [7] | Activity [8] | CC50 [9] | Ratio CC50/IC50 [10] | Activity [11] | IC50 [12] | IC50 [13] | Activity [14] | Activity [15] | Activity [16] | Activity [17] | Activity [18] | Activity [19] | Activity [20] | further results |
| --- | --- | --- | --- | --- | --- | --- | --- | --- | --- | --- | --- | --- | --- | --- | --- | --- | --- | --- | --- | --- | --- |
| Nc1nc(F)cc2c1ncn2[C@@H]1C=C(CO)[C@@H](O)[C@H]1O | inactive | 218 µM | inactive | 25 | 0.67 µM | 6.8 µM | Non-toxic | inactive | 11 µM | >12 | inactive | 8.7 µM | 8.5 µM | Non-toxic | inactive | Non-toxic | inactive | Non-toxic | Non-toxic | inactive | Activity [21]: inactive; Activity [22]: inactive; Activity [23]: Non-toxic; IC50 [24]: 1.4 µM; CC50 [25]: > 100 µM; Activity [26]: Non-toxic; Activity [27]: inactive; Ratio CC50/IC50 [28]: 17; Activity [29]: inactive; Activity [30]: inactive; CC50 [31]: > 100 µM; Activity [32]: Non-toxic; Activity [33]: inactive; Ratio CC50/IC50 [34]: >50 |
| Nc1nc(F)cc2c1ncn2[C@@H]1C=C(CCO)[C@@H](O)[C@H]1O | inactive | > 300 µM | inactive | > 300 | 0.99 µM | 29 µM | Non-toxic | inactive | 7.5 µM | >1 | inactive | < 0.1 µM | 89.8 µM | Non-toxic | inactive | Non-toxic | inactive | Non-toxic | Non-toxic | inactive | Activity [21]: inactive; Activity [22]: inactive; Activity [23]: Non-toxic; IC50 [24]: > 10 µM; CC50 [25]: > 100 µM; Activity [26]: Non-toxic; Activity [27]: inactive; Ratio CC50/IC50 [28]: 8; Activity [29]: inactive; Activity [30]: inactive; CC50 [31]: > 100 µM; Activity [32]: Non-toxic; Activity [33]: inactive; Ratio CC50/IC50 [34]: >3.4 |
